Measurements: US11174251B2, “Compositions and methods for inhibition of the JAK pathway” (Rigel Pharmaceuticals, Inc., priority 2010, dated 2021)
Counter-ions that a name gives are not always drawn.

Target: T1, JAK3 (Homo sapiens, UniProt P52333)
T1 construct: The Ramos B-cell line was acquired from ATCC (ATCC Catalog No. CRL-1596); host or cells: Ramos B-cell line (human)
T1 sequence (P52333 1-1124): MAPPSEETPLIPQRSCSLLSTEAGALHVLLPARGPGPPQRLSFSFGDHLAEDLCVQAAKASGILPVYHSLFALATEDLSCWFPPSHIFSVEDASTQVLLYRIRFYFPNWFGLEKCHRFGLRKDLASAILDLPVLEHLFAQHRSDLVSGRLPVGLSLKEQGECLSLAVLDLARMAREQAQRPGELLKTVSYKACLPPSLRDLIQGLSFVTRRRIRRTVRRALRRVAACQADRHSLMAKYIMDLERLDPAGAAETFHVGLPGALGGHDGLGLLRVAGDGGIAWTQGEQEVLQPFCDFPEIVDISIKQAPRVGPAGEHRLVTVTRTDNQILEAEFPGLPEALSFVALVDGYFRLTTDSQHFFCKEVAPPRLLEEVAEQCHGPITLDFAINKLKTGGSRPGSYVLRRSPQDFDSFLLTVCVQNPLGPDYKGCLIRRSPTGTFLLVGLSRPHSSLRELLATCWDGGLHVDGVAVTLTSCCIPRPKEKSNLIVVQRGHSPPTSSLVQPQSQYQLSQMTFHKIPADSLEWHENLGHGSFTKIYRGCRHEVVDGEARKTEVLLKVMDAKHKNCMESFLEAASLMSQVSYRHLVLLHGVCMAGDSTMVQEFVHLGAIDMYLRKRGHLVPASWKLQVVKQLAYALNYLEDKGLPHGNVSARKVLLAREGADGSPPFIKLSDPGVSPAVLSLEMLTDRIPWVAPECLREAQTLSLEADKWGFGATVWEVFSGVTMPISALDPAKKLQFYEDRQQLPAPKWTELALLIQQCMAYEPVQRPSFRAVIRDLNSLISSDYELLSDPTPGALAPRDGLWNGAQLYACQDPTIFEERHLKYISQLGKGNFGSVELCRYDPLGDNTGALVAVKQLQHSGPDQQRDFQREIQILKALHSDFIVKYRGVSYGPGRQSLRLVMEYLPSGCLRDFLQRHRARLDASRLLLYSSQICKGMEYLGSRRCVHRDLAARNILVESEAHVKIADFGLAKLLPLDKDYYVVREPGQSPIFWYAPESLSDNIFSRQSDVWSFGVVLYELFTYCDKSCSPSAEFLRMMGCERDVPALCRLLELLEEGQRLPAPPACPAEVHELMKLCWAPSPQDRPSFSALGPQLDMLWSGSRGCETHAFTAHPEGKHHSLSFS
Experiment: Assay for CD23 expression on Ramos B-cells stimulated by IL-4 (Table IV: ability to inhibit JAK3 activity)
Assay type: cell-based
Conditions: tested under conditions described in Example 3 (so in the source)
Source text: One means of assaying for such inhibition is detection of the effect of the 2,4-pyrimidinediamine compounds on the upregulation of downstream gene products. In the Ramos/IL4 assay, B-cells are stimulated with the cytokine Interleukin-4 (IL-4) leading to the activation of the JAK/Stat pathway through phosphorylation of the JAK family kinases, JAK1 and JAK3, which in turn phosphorylate and activate the transcription factor Stat-6. […] To study the effect of inhibitors (for example, the 2,4-substituted pyrimindinediamine compounds described herein) on the JAK1 and JAK3 kinases, human Ramos B cells are stimulated with human IL-4. 20 to 24 hours post stimulation, cells are stained for upregulation of CD23 and analyzed using FACS.
B-cells stimulated with cytokine Interleukin-4 (IL-4) activate the JAK/Stat pathway through phosphorylation of the JAK family kinases, JAK-1 and JAK-3, which in turn phosphorylate and activate the transcription factor Stat-6. […] To study the effect of inhibitors on the JAK family kinases, human Ramos B cells were stimulated with human IL-4 and the surface expression of CD23 was measured.
The day before the experiment, Ramos B-cells were diluted to 3.5×10^5 cells/mL to ensure that they were in a logarithmic growth phase.
Cells were spun down and suspended in RPMI with 5% serum. 5×10^4 cells were used per point in a 96-well tissue culture plate. Cells were pre-incubated with compound or DMSO (Sigma-Aldrich, St. Louis, Mo., Cat No. D2650) vehicle control for 1 hour in a 37° C. incubator. Cells were then stimulated with IL-4 (Peprotech Inc., Rocky Hill, N.J., Cat No. 200-04) for a final concentration of 50 units/mL for 20-24 hours. […] Detection was performed using a BD LSR I System Flow Cytometer, purchased from Becton Dickinson Biosciences of San Jose, Calif.
The compound designations in Table IV are consistent with those of Tables I-II above.

`NC(=O)c1ccc(Nc2nccc(Nc3ccc4oc(=O)[nH]c4c3)n2)cc1` [Compound I-2, 4-(4-(2-oxo-2,3-dihydrobenzo[d]oxazol-5-ylamino)pyrimidin-2-ylamino)benzamide trifluoroacetate salt] was tested, and the IC50 was < 500 nM.

`COc1ccc(Nc2ncc(F)c(Nc3ccc4oc(=O)[nH]c4c3)n2)cc1C(F)(F)F` [Compound I-212, 5-fluoro-N2-(4-methoxy-3-trifluoromethyl)phenyl-N4-(2-oxo-2,3-dihydro-1,3-benzoxazol-5-yl)-2,4-pyrimidinediamine] was tested, and the IC50 was < 500 nM.

With `COc1c(F)ccc(Nc2ncc(F)c(Nc3cc(F)c4oc(=O)[nH]c4c3)n2)c1F` [Compound I-193, 5-(2-(2,4-difluoro-3-methoxyphenylamino)-5-fluoropyrimidin-4-ylamino)-7-fluorobenzo[d]oxazol-2(3H)-one trifluoroacetate salt] the IC50 was 500 to 5000 nM.

In the case of `Cc1ccc(Nc2ncc(Cl)c(Nc3ccc4oc(=O)[nH]c4c3)n2)cc1C(F)(F)F` [Compound I-9, 5-(5-chloro-2-(4-methyl-3-(trifluoromethyl)phenylamino)pyrimidin-4-ylamino)benzo[d]oxazol-2(3H)-one], the IC50 is reported as < 500 nM.

For `O=c1[nH]c2cc(Nc3nc(Nc4ccc(F)c(-c5cccnc5)c4)ncc3F)ccc2o1` [Compound I-206, 5-(2-(4-fluoro-3-(pyridin-3-yl)phenylamino)-5-fluoropyrimidin-4-ylamino)benzo[d]oxazol-2(3H)-one], the IC50 was < 500 nM.

In the case of `COc1c(F)ccc(Nc2ncc(Cl)c(Nc3ccc4oc(=O)[nH]c4c3)n2)c1F` [Compound I-7, 5-(5-chloro-2-(2,4-difluoro-3-methoxyphenylamino)pyrimidin-4-ylamino)benzo[d]oxazol-2(3H)-one trifluoroacetate salt], the IC50 is reported as < 500 nM.

In the case of `CS(=O)(=O)c1cc(Nc2ncc(F)c(Nc3ccc4oc(=O)[nH]c4c3)n2)ccc1F` [Compound I-168, 5-(2-(4-fluoro-3-(methylsulfonyl)phenylamino)-5-fluoropyrimidin-4-ylamino)benzo[d]oxazol-2(3H)-one trifluoroacetate salt], the IC50 is reported as < 500 nM.

For `Cc1cnc(Nc2ccc(CC=O)cc2)nc1Nc1ccc2oc(=O)[nH]c2c1` [Compound I-30, {4-[5-Methyl-4-(2-oxo-2,3-dihydro-benzooxazol-5-ylamino)-pyrimidin-2-ylamino]-phenyl}-acetaldehyde], the IC50 was < 500 nM.

`Cc1cnc(Nc2cc(C)c(C)c(C)c2)nc1Nc1cc(CN2CCN(C)CC2)c2oc(=O)[nH]c2c1` [Compound I-93, 5-(2-(3,4,5-trimethylphenylamino)-5-methylpyrimidin-4-ylamino)-7-((4-methylpiperazin-1-yl)methyl)benzo[d]oxazol-2(3H)-one] showed an IC50 of 500 to 5000 nM.

With `COc1cccc(Nc2nccc(Nc3ccc4oc(=O)[nH]c4c3)n2)c1F` [Compound I-23, 5-(2-(2-fluoro-3-methoxyphenylamino)pyrimidin-4-ylamino)benzo[d]oxazol-2(3H)-one] the IC50 was 500 to 5000 nM.

In the case of `Cc1ccc(Nc2ncc(C)c(Nc3ccc4oc(=O)[nH]c4c3)n2)cc1N(C)C` [Compound I-17, 5-[2-(3-Dimethylamino-4-methyl-phenylamino)-5-methyl-pyrimidin-4-ylamino]-3H-benzooxazol-2-one], the IC50 is reported as < 500 nM.

With `C=Cc1cccc(Nc2ncc(C)c(Nc3ccc4oc(=O)[nH]c4c3)n2)c1` [Compound I-65, 5-[5-Methyl-2-(3-vinyl-phenylamino)-pyrimidin-4-ylamino]-3H-benzooxazol-2-one trifluoroacetate salt] the IC50 was < 500 nM.

In the case of `Cc1cnc(Nc2cc(C)c(C)c(CO)c2)nc1Nc1ccc2oc(=O)[nH]c2c1` [Compound I-147, N2-(3,4-dimethyl-5-hydroxymethyl)phenyl-5-methyl-N4-(2-oxo-2,3-dihydro-1,3-benzoxazol-5-yl)-2,4-pyrimidinediamine], the IC50 is reported as < 500 nM.

In the case of `O=C1CCCCc2cc(Nc3ncc(F)c(Nc4ccc5oc(=O)[nH]c5c4)n3)ccc21` [II-5, 5-(5-fluoro-2-(5-oxo-6,7,8,9-tetrahydro-5H-benzo[7]annulen-2-ylamino)pyrimidin-4-ylamino)benzo[d]oxazol-2(3H)-one formate salt], the IC50 is reported as < 500 nM.

`Cc1cnc(Nc2cc(C)c(C)c(C)c2)nc1Nc1ccc2oc(=O)n(COP(=O)(OCCN(C)C)OCCN(C)C)c2c1` [Compound I-134, N4-{3-bis[2-(N,N-dimethylamino)ethoxy]phosphinyloxymethyl-2-oxo-2,3-dihydro-1,3-benzoxazol-5-yl}-5-methyl-N2-(3,4,5-trimethyl)phenyl-2,4-pyrimidinediamine] was tested, and the IC50 was > 10000 nM.

For `[2H]C([2H])([2H])c1c(C)cc(Nc2ncc(F)c(Nc3ccc4oc(=O)[nH]c4c3)n2)cc1C` [Compound I-37, 5-(5-fluoro-2-(3,5-dimethyl-4-d3-methyl)phenylamino)pyrimidin-4-ylamino)benzo[d]oxazol-2(3H)-one trifluoroacetate salt], the IC50 was > 10000 nM.

For `Cc1cc(Nc2ncc(CN3CCCCC3)c(Nc3ccc4oc(=O)[nH]c4c3)n2)cc(C)c1C` [Compound I-99, 5-(2-(3,4,5-trimethylphenylamino)-5-((piperidin-1-yl)methyl)pyrimidin-4-ylamino)benzo[d]oxazol-2(3H)-one], the IC50 was > 10000 nM.

In the case of `Cc1cc(Nc2ncc(F)c(Nc3ccc4oc(=O)[nH]c4c3)n2)cc(C)c1C` [Compound I-214, 5-fluoro-N2-(3,4,5-trimethyl)phenyl-N4-(2-oxo-2,3-dihydro-1,3-benzoxazol-5-yl)-2,4-pyrimidinediamine], the IC50 is reported as > 10000 nM.

For `CCNc1cc(Nc2ncc(Cl)c(Nc3ccc4oc(=O)[nH]c4c3)n2)cc(C)c1C` [Compound I-87, 5-(5-chloro-2-(3-(ethylamino)-4,5-dimethylphenylamino)pyrimidin-4-ylamino)benzo[d]oxazol-2(3H)-one formate salt], the IC50 was < 500 nM.

In the case of `COc1ccc(Nc2ncc(F)c(Nc3cc(C)c4oc(=O)[nH]c4c3)n2)cc1C` [Compound I-178, 5-(2-(4-methoxy-3-methylphenylamino)-5-fluoropyrimidin-4-ylamino)-7-methylbenzo[d]oxazol-2(3H)-one trifluoroacetate salt], the IC50 is reported as < 500 nM.

For `CCN(CC)c1cc(Nc2ncc(Cl)c(Nc3ccc4oc(=O)[nH]c4c3)n2)cc(C)c1C` [Compound I-86, 5-(5-chloro-2-(3-(diethylamino)-4,5-dimethylphenylamino)pyrimidin-4-ylamino)benzo[d]oxazol-2(3H)-one formate salt], the IC50 was < 500 nM.

`CN1C/C=C\Cc2ccc(Nc3ncc(F)c(Nc4ccc5oc(=O)[nH]c5c4)n3)cc2C1=O` [II-4, (Z)-5-(5-fluoro-2-(2-methyl-1-oxo-1,2,3,6-tetrahydrobenzo[c]azocin-9-ylamino)pyrimidin-4-ylamino)benzo[d]oxazol-2(3H)-one formate salt] was tested, and the IC50 was < 500 nM.

In the case of `COc1cccc(Nc2ncc(F)c(Nc3ccc4oc(=O)[nH]c4c3)n2)c1F` [Compound I-20, 5-(5-fluoro-2-(2-fluoro-3-methoxyphenylamino)pyrimidin-4-ylamino)benzo[d]oxazol-2(3H)-one trifluoroacetate salt], the IC50 is reported as 500 to 5000 nM.

For `COCc1c(C)cc(Nc2ncc(C)c(Nc3ccc4oc(=O)[nH]c4c3)n2)cc1C` [Compound I-143, N2-(3,5-dimethyl-4-methoxymethyl)phenyl-5-methyl-N4-(2-oxo-2,3-dihydro-1,3-benzoxazol-5-yl)-2,4-pyrimidinediamine], the IC50 was < 500 nM.
